The text below walks through data of PubChem BioAssay (NCI).

The structures appear in SMILES notation.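 Cells were grown in 96-well plates and exposed to each compound for 48 hours at five concentrations; endpoints were interpolated linearly between bracketing concentrations, or set to the highest concentration if not reached. Definition used: TGI = concentration required for complete inhibition of growth.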 Where only a bound is given, the exact number is not on record here.

Among the test systems are DU-145 prostate; CCRF-CEM leukemia; SK-MEL-2 melanoma; NCI/ADR-RES ovarian; 786-0 renal; UACC-62 melanoma; SNB-19 CNS; PC-3 prostate; RXF 393 renal; T-47D breast.
Assay in all cases: NCI tumour cell line growth inhibition, 48 h

For `OC1C(O)C(O)C(O)C(O)C1O` (stereo not given), the TGI with DU-145 prostate was greater than 1000 µM; in the assay on CCRF-CEM leukemia, 144 µM; in the assay on SK-MEL-2 melanoma, greater than 1000 µM; in the assay on NCI/ADR-RES ovarian, greater than 1000 µM; in the assay with 786-0 renal it was greater than 1000 µM; with UACC-62 melanoma, greater than 1000 µM. The TGI in the assay with SNB-19 CNS, with PC-3 prostate, in the assay on RXF 393 renal and in the assay with T-47D breast was greater than 1000 µM each time.

`N#Cc1c(=O)c2cc([N+](=O)[O-])ccc2n2c1[nH]c1ccccc12`: the TGI with DU-145 prostate was greater than 100 µM; in the assay with CCRF-CEM leukemia, greater than 100 µM; with SK-MEL-2 melanoma it was greater than 69.1 µM; in the assay with NCI/ADR-RES ovarian, greater than 56.4 µM; in the assay on 786-0 renal, greater than 100 µM; in the assay with UACC-62 melanoma it was greater than 54.1 µM. For the same compound, the TGI in the assay on SNB-19 CNS was greater than 72.9 µM; in the assay on PC-3 prostate, greater than 100 µM; in the assay with RXF 393 renal, greater than 100 µM; with T-47D breast, greater than 72.7 µM.

Take `CC1(C)OCC2OC3([C@H](O)CCO)OC(C)(C)OC3C2O1` (stereo not given in full): the TGI in the assay on DU-145 prostate, in the assay with CCRF-CEM leukemia, in the assay on SK-MEL-2 melanoma, with NCI/ADR-RES ovarian, with 786-0 renal and in the assay with UACC-62 melanoma was greater than 100 µM throughout. Besides, the TGI in the assay with SNB-19 CNS, in the assay on PC-3 prostate, in the assay on RXF 393 renal and in the assay on T-47D breast was greater than 100 µM throughout.

Turning to `C=CCN1C(=O)/C(=C/c2ccc(C)cc2)N=C1SC/C=C/C`, the TGI in the assay with DU-145 prostate was greater than 100 µM; in the assay with CCRF-CEM leukemia, greater than 100 µM; in the assay with SK-MEL-2 melanoma, 57.7 µM; in the assay on NCI/ADR-RES ovarian, greater than 100 µM; in the assay on 786-0 renal, greater than 100 µM; with UACC-62 melanoma, greater than 100 µM. Also, the TGI with SNB-19 CNS was greater than 100 µM; in the assay on PC-3 prostate it was greater than 100 µM; in the assay on RXF 393 renal, 46.8 µM; with T-47D breast it was 83.3 µM.

Consider `Clc1ccc(OCc2nnc3sc(-c4ccc(-c5ccc(Cl)cc5Cl)o4)nn23)c(Cl)c1`, for which the TGI with DU-145 prostate is 66.8 µM; in the assay with CCRF-CEM leukemia, 68.2 µM; in the assay with SK-MEL-2 melanoma, 32.1 µM; in the assay on NCI/ADR-RES ovarian, 45.1 µM; with 786-0 renal, 26.1 µM; in the assay with UACC-62 melanoma it was greater than 100 µM. Further, the TGI in the assay with SNB-19 CNS came out at 56.6 µM; in the assay on PC-3 prostate, 33.1 µM; in the assay with RXF 393 renal, 30.2 µM; in the assay with T-47D breast it was 54.6 µM.

For the compound `Cc1cccc2sc(NC(=O)c3cc([N+](=O)[O-])ccc3Cl)nc12`, the TGI in the assay on DU-145 prostate is 17.4 µM; in the assay on CCRF-CEM leukemia, 2.76 µM; in the assay with SK-MEL-2 melanoma, greater than 100 µM; in the assay on NCI/ADR-RES ovarian it was greater than 24.2 µM; with 786-0 renal it was 4.67 µM; with UACC-62 melanoma, greater than 100 µM. Moreover, the TGI with SNB-19 CNS is greater than 100 µM; in the assay on PC-3 prostate, 38.4 µM; with RXF 393 renal, 12.9 µM; in the assay on T-47D breast it was greater than 100 µM.

On to `N#CC1C(=O)Nc2sc(C(=O)c3ccc(Br)cc3)c(N)c2C12CCCCC2` (stereo not given), for which the TGI was greater than 100 µM in the assay on DU-145 prostate; 80.3 µM in the assay on CCRF-CEM leukemia; 37.7 µM in the assay with SK-MEL-2 melanoma; greater than 100 µM with NCI/ADR-RES ovarian; greater than 100 µM in the assay on 786-0 renal; 54.1 µM with UACC-62 melanoma. The TGI in the assay on SNB-19 CNS is greater than 100 µM; in the assay on PC-3 prostate it was 57.1 µM; in the assay with RXF 393 renal, 31.8 µM; in the assay on T-47D breast, greater than 100 µM.

Turning to `O=C1CC(Br)c2c(Cl)sc(Cl)c21` (stereo not given), the TGI with DU-145 prostate amounted to 31.3 µM; with CCRF-CEM leukemia it was 2.15 µM; with SK-MEL-2 melanoma, 32.3 µM; in the assay with NCI/ADR-RES ovarian, 90.1 µM; in the assay with 786-0 renal, 8.91 µM; in the assay on UACC-62 melanoma, 25.1 µM. Moreover, the TGI turned out to be 37.8 µM in the assay with SNB-19 CNS, 23.4 µM in the assay with PC-3 prostate, 4.91 µM in the assay on RXF 393 renal and 16 µM in the assay on T-47D breast.

Regarding `O=C1Oc2ccccc2C(=O)/C1=C/N1C(=O)/C(=C/c2ccc([N+](=O)[O-])cc2)SC1=S`, the TGI with DU-145 prostate was greater than 100 µM; in the assay with CCRF-CEM leukemia, greater than 100 µM; in the assay with SK-MEL-2 melanoma, 82.4 µM; in the assay on NCI/ADR-RES ovarian it was 95.7 µM; in the assay with 786-0 renal, greater than 100 µM; with UACC-62 melanoma, greater than 100 µM. In addition, the TGI with SNB-19 CNS came out at 79.1 µM; with PC-3 prostate it was 61.7 µM; in the assay on RXF 393 renal, 79.3 µM; in the assay on T-47D breast, 51.7 µM.

For `O=[N+]([O-])CC(SCc1ccccc1)c1ccc2c(c1)OCO2` (stereo not given), the TGI in the assay on DU-145 prostate amounted to 30 µM; in the assay on CCRF-CEM leukemia it was 8.74 µM; in the assay with SK-MEL-2 melanoma, 39.3 µM; with NCI/ADR-RES ovarian, 28.8 µM; with 786-0 renal, 3.42 µM; with UACC-62 melanoma, 25.2 µM. Besides, the TGI in the assay on SNB-19 CNS amounted to 28 µM; in the assay with PC-3 prostate it was 33.1 µM; with RXF 393 renal, 3.63 µM; in the assay on T-47D breast, 47.7 µM.

Consider `NC1CC2C3CCC2C1C3=O` (stereo not given), for which the TGI in the assay with DU-145 prostate, in the assay on CCRF-CEM leukemia, in the assay on SK-MEL-2 melanoma, in the assay with NCI/ADR-RES ovarian, in the assay on 786-0 renal and with UACC-62 melanoma was greater than 100 µM throughout. Also, the TGI with SNB-19 CNS, in the assay with PC-3 prostate, in the assay on RXF 393 renal and with T-47D breast was greater than 100 µM throughout.

With `O=c1c2cc(Br)ccc2oc2nc3n(c(=O)c12)CCCS3`, the TGI in the assay with DU-145 prostate, with CCRF-CEM leukemia, with SK-MEL-2 melanoma, in the assay with NCI/ADR-RES ovarian, in the assay with 786-0 renal and in the assay with UACC-62 melanoma was greater than 100 µM in each case. For the same compound, the TGI in the assay with SNB-19 CNS, in the assay on PC-3 prostate, in the assay on RXF 393 renal and with T-47D breast was greater than 100 µM each time.

As to `O=[N+]([O-])c1ccc(Cl)cc1C1ON=C(c2ccccc2)N1C12CC3CC(CC(C3)C1)C2` (stereo not given), the TGI with DU-145 prostate, with CCRF-CEM leukemia, with SK-MEL-2 melanoma, in the assay on NCI/ADR-RES ovarian, with 786-0 renal and in the assay with UACC-62 melanoma was greater than 100 µM each time. Further, the TGI in the assay with SNB-19 CNS, in the assay with PC-3 prostate, in the assay with RXF 393 renal and in the assay with T-47D breast was greater than 100 µM each time.

Take `N[C@@H]1c2c(Br)sc(Br)c2[C@H](O)[C@@H]1O`: the TGI with DU-145 prostate, with CCRF-CEM leukemia, in the assay with SK-MEL-2 melanoma, with NCI/ADR-RES ovarian, with 786-0 renal and in the assay with UACC-62 melanoma was greater than 100 µM each time. In addition, the TGI with SNB-19 CNS, in the assay with PC-3 prostate, with RXF 393 renal and with T-47D breast was greater than 100 µM each time.

On to `CCCCCCCCCCCCCCCCCCNc1ccn(C2OC(COP(=O)(O)O)C(O)C2O)c(=O)n1` (stereo not given), for which the TGI in the assay with DU-145 prostate, with CCRF-CEM leukemia, in the assay with SK-MEL-2 melanoma, in the assay on NCI/ADR-RES ovarian, in the assay on 786-0 renal and in the assay with UACC-62 melanoma was greater than 100 µM in each case. The TGI in the assay on SNB-19 CNS, in the assay with PC-3 prostate, in the assay with RXF 393 renal and in the assay with T-47D breast was greater than 100 µM in each case.

Regarding `Cc1ccc(C(=O)CC(Cl)=C(Cl)Cl)cc1`, the TGI was greater than 100 µM in the assay on DU-145 prostate; 52.1 µM with CCRF-CEM leukemia; greater than 100 µM in the assay on SK-MEL-2 melanoma; greater than 100 µM in the assay with NCI/ADR-RES ovarian; greater than 100 µM with 786-0 renal; greater than 100 µM with UACC-62 melanoma. The TGI in the assay on SNB-19 CNS, with PC-3 prostate, with RXF 393 renal and with T-47D breast was greater than 100 µM in each case.

Regarding `Cn1c(N2CCCC2)c(C=O)c(=O)n(C)c1=O`, the TGI in the assay with DU-145 prostate, with CCRF-CEM leukemia, in the assay with SK-MEL-2 melanoma, in the assay on NCI/ADR-RES ovarian, in the assay with 786-0 renal and with UACC-62 melanoma was greater than 100 µM throughout. The TGI with SNB-19 CNS, in the assay with PC-3 prostate, in the assay with RXF 393 renal and in the assay with T-47D breast was greater than 100 µM in each case.

As to `COc1ccc(-c2cc(-c3ccc(Nc4ccnc5cc(C(F)(F)F)ccc45)cc3)[nH]c(=O)c2C#N)c2ccccc12`, the TGI in the assay with DU-145 prostate was greater than 83.7 µM; with CCRF-CEM leukemia, greater than 56.8 µM; with SK-MEL-2 melanoma, greater than 100 µM; with NCI/ADR-RES ovarian, greater than 100 µM; with 786-0 renal, greater than 100 µM; in the assay with UACC-62 melanoma, greater than 100 µM. The TGI in the assay with SNB-19 CNS is greater than 54.7 µM; with PC-3 prostate, greater than 100 µM; with RXF 393 renal it was 46.1 µM; in the assay on T-47D breast it was greater than 60.5 µM.

In the case of `Oc1ccc2c(c1)OCC(O)(c1ccccc1O)C2` (stereo not given), the TGI with DU-145 prostate, with CCRF-CEM leukemia, in the assay with SK-MEL-2 melanoma, with NCI/ADR-RES ovarian, in the assay on 786-0 renal and in the assay with UACC-62 melanoma was greater than 100 µM in each case. Besides, the TGI in the assay on SNB-19 CNS, with PC-3 prostate, in the assay on RXF 393 renal and in the assay on T-47D breast was greater than 100 µM each time.

On to `C#CC(O)/C=C/CCCCCCC#CC/C=C\CC#CCCCCCC/C=C/C(O)C#C` (stereo not given), for which the TGI in the assay with DU-145 prostate was determined as 8.99 µM; in the assay on CCRF-CEM leukemia, 0.722 µM; in the assay with SK-MEL-2 melanoma, 6.8 µM; in the assay on NCI/ADR-RES ovarian it was 8.26 µM; with 786-0 renal, 5.23 µM; in the assay on UACC-62 melanoma, 7.38 µM. Also, the TGI in the assay on SNB-19 CNS was found to be 24.8 µM; in the assay with PC-3 prostate it was 24.4 µM; in the assay on RXF 393 renal, 28.3 µM; in the assay on T-47D breast, 5.85 µM.
